# Source: ChEMBL document CHEMBL1143999, “A new generation of adenosine receptor antagonists: from di- to trisubstituted aminopyrimidines” (Bioorg Med Chem, 2008)
# Tests used:
# Adenosine receptor A1 [1] = target: T1, Adenosine receptor A1 (Homo sapiens, UniProt P30542); test: biochemical
# T1 sequence (P30542 whole entry): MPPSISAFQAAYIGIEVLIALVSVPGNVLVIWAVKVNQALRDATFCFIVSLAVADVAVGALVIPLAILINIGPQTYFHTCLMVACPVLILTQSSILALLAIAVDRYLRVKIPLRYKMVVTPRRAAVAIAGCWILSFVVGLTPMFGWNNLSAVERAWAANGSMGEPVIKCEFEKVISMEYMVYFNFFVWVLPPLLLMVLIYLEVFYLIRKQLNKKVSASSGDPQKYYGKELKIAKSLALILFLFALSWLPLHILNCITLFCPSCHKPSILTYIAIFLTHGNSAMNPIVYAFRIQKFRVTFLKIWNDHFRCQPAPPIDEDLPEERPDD
# Adenosine receptor A2a [2] = target: T2, Adenosine receptor A2a (Homo sapiens, UniProt P29274); test: biochemical
# Adenosine receptor A2a [3] = target: T2, Adenosine receptor A2a; test: Displacement of [3H]ZM-241385 from human adenosine A2A receptor expressed in HEK293 cells at 1 uM; format: cell-based
# [4] = target: T3, Adenosine receptor A1 (Homo sapiens) (UniProt P30542); test: Displacement of [3H]DPCPX from human adenosine A1 receptor expressed in CHO cells at 1 uM; format: cell-based
# T3 sequence (whole entry): T1 sequence (P30542 whole entry)
# [5] = target: T3, Adenosine receptor A1 (Homo sapiens); test: (§1) Activity at human adenosine A1 receptor expressed in CHO cells assessed as inhibition of CPA-induced decrease in forskolin-stimulated cAMP production by TR-FRET assay; format: functional, cell-based
# Adenosine receptor A1 [6] = target: T1, Adenosine receptor A1; test: as §1; format: functional, cell-based
# Adenosine receptor A3 = target: T4, Adenosine receptor A3 (Homo sapiens, UniProt P0DMS8); test: biochemical
# T4 sequence (P0DMS8 whole entry): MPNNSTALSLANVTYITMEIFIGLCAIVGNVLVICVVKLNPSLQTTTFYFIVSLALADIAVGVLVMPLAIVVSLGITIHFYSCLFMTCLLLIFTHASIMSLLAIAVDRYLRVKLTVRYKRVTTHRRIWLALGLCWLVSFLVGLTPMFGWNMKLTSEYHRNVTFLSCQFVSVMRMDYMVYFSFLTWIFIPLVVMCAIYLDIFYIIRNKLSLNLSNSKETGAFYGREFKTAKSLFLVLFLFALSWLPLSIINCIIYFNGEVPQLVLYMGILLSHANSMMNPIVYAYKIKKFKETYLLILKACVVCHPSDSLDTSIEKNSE
# Description: Displacement of [3H]AB-MECA from human adenosine A3 receptor expressed in HEK293 cells
# T2 sequence (P29274 whole entry): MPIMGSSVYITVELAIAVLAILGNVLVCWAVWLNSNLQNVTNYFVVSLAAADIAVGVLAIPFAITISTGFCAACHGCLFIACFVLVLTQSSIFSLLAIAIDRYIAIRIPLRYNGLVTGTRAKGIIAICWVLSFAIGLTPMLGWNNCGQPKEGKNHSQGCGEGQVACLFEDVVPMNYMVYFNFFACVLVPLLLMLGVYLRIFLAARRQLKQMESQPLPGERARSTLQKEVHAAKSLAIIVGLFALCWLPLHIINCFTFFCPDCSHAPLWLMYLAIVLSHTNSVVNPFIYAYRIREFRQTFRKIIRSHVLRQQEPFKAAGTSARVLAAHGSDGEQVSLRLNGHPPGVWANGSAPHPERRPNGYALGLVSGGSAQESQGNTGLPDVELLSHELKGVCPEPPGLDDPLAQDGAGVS
Compound,Ki (Adenosine receptor A1 [1]),Ki (Adenosine receptor A2a [2]),other results
Nc1nc(-c2ccccc2)cc(-c2ccccc2)n1,17.7 nM,,
CCCC(=O)Nc1nc(-c2ccccc2)c(C#N)c(-c2ccccc2)n1,2.9 nM,48.2 nM,
N#Cc1c(-c2ccccc2)nc(NC(=O)c2ccc(Cl)c(Cl)c2)nc1-c1ccccc1,,,Activity (Adenosine receptor A2a [3]): 35%; Activity [4]: 58%
CCC(CC)C(=O)Nc1nc(-c2ccccc2)nc(-c2ccc3c(c2)OCO3)c1C#N,18.4 nM,,Activity (Adenosine receptor A2a [3]): 0%
COc1ccc(C(=O)Nc2nc(-c3ccccc3)c(C#N)c(-c3ccccc3)n2)cc1,102 nM,300 nM,
N#Cc1c(N)nc(-c2ccccc2)nc1-c1ccccc1,10.8 nM,19 nM,
N#Cc1c(-c2ccccc2)nc(NC(=O)c2ccco2)nc1-c1ccccc1,,,Activity (Adenosine receptor A2a [3]): 42%; Activity [4]: 26%
N#Cc1c(-c2ccccc2)nc(N)nc1-c1ccc2c(c1)OCO2,,5.2 nM,
CCCC(=O)Nc1nc(-c2ccccc2)nc(-c2ccc3c(c2)OCO3)c1C#N,13.4 nM,,Activity (Adenosine receptor A2a [3]): 23%
CCCC(=O)Nc1nc(-c2ccccc2)cc(-c2ccc3c(c2)OCO3)n1,43 nM,,Activity (Adenosine receptor A2a [3]): 8%
CCCC(=O)Nc1nc(-c2ccccc2)c(C#N)c(-c2ccc3c(c2)OCO3)n1,8.3 nM,21.3 nM,
N#Cc1c(NC(=O)C2CCCC2)nc(-c2ccccc2)nc1-c1ccccc1,5.3 nM,280 nM,
N#Cc1c(-c2ccccc2)nc(NC(=O)c2ccccc2)nc1-c1ccccc1,,,Activity (Adenosine receptor A2a [3]): 48%; Activity [4]: 38%
N#Cc1c(NC(=O)C2CCCC2)nc(-c2ccccc2)nc1-c1ccc2c(c1)OCO2,,,Kb [5]: 28 nM; IC50 (Adenosine receptor A1 [6]): 1400 nM
CCC(CC)C(=O)Nc1nc(-c2ccccc2)c(C#N)c(-c2ccccc2)n1,6.4 nM,54.5 nM,
N#Cc1c(-c2ccccc2)nc(NC(=O)c2ccc(Cl)cc2)nc1-c1ccccc1,92.3 nM,32.9 nM,
N#Cc1c(-c2ccccc2)nc(NC(=O)C2CCCC2)nc1-c1ccc2c(c1)OCO2,2.8 nM,27.2 nM,
CCCC(=O)Nc1nc(-c2ccccc2)nc(-c2ccccc2)c1C#N,12.6 nM,69.5 nM,
N#Cc1c(-c2ccccc2)nc(N)nc1-c1ccccc1,,22.7 nM,
CCCC(=O)Nc1cc(-c2ccc3c(c2)OCO3)nc(-c2ccccc2)n1,6.8 nM,222 nM,Ki (Adenosine receptor A3): 53.9 nM

# Now from value to molecule, other results behind:
Ki (Adenosine receptor A1 [1]),Ki (Adenosine receptor A2a [2]),Compound,other results
4.9 nM,44.3 nM,N#Cc1c(N)nc(-c2ccccc2)nc1-c1ccc2c(c1)OCO2,
115 nM,158 nM,Cc1ccc(C(=O)Nc2nc(-c3ccccc3)c(C#N)c(-c3ccccc3)n2)cc1,
2.9 nM,35.3 nM,CC(C)C(=O)Nc1nc(-c2ccccc2)c(C#N)c(-c2ccccc2)n1,
8.1 nM,,O=C(Nc1nc(-c2ccccc2)cc(-c2ccc3c(c2)OCO3)n1)C1CCCC1,Activity (Adenosine receptor A2a [3]): 26%
,381 nM,Nc1nc(-c2ccccc2)cc(-c2ccc3c(c2)OCO3)n1,
27.9 nM,49.8 nM,N#Cc1c(NC(=O)C2CC2)nc(-c2ccccc2)nc1-c1ccccc1,
9.4 nM,45.5 nM,N#Cc1c(-c2ccccc2)nc(NC(=O)C2CC2)nc1-c1ccccc1,
1.2 nM,159 nM,N#Cc1c(-c2ccccc2)nc(NC(=O)C2CCCC2)nc1-c1ccccc1,Kb [5]: 3 nM; IC50 (Adenosine receptor A1 [6]): 150 nM
,1650 nM,OC[C@H]1O[C@@H](n2cnc3c(NC4CCCC4)ncnc32)[C@H](O)[C@@H]1O [N6-CYCLOPENTYLADENOSINE],
27.9 nM,574 nM,CCC(CC)C(=O)Nc1cc(-c2ccc3c(c2)OCO3)nc(-c2ccccc2)n1,Ki (Adenosine receptor A3): 634 nM
17.3 nM,339 nM,O=C(Nc1cc(-c2ccc3c(c2)OCO3)nc(-c2ccccc2)n1)C1CCCC1,Ki (Adenosine receptor A3): 186 nM
13 nM,69.2 nM,O=C(Nc1cc(-c2ccc3c(c2)OCO3)nc(-c2ccccc2)n1)C1CC1,Ki (Adenosine receptor A3): 30.7 nM
17.6 nM,,CCC(CC)C(=O)Nc1nc(-c2ccccc2)cc(-c2ccc3c(c2)OCO3)n1,Activity (Adenosine receptor A2a [3]): 33%
